Measured values taken from PubChem BioAssay (NCI).
Where “and” joins values, the source holds several entries; their conditions need not be identical. Identical values can stand only once.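 Where inhibition never reached the appropriate level, the endpoint shown equals the highest concentration tested. Otherwise, values were interpolated linearly from a five-concentration, 48-hour dose response in 96-well plates. GI50 marks 50% less growth. The concentration for full growth arrest is given as TGI.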

Experiments:
Assay in all cases: NCI-60 cell line screen, 48 h
[1] = tested on: CAKI-1 renal
[2] = tested on: HCT-15 colon
[3] = tested on: K-562 leukemia
[4] = tested on: OVCAR-5 ovarian
[5] = tested on: SK-MEL-5 melanoma
[6] = tested on: SNB-19 CNS
[7] = tested on: U251 CNS
[8] = tested on: UACC-257 melanoma
[9] = tested on: UO-31 renal
[10] = tested on: SK-OV-3 ovarian

With `CC(=O)c1ccc(NCn2nc(-c3ccccc3O)oc2=S)cc1` the GI50 [1] was > 100 µM, the TGI [1] was > 100 µM and the GI50 [2] was 23.4 µM. The TGI [2] was 49.3 µM, the GI50 [3] was > 100 µM and the TGI [3] was > 100 µM. The GI50 [4] was > 100 µM, the TGI [4] was > 100 µM and the GI50 [5] was 55.6 µM. The TGI [5] was > 100 µM, the GI50 [6] was > 100 µM and the TGI [6] was > 100 µM. The GI50 [7] was 50.8 µM, the TGI [7] was > 100 µM and the GI50 [8] was > 100 µM. For the same compound, the TGI [8] was > 100 µM, the GI50 [9] was > 100 µM and the TGI [9] was > 100 µM.

In the case of `O=C(/C=C/c1ccccc1)c1ccc(O)c(CN2CCN(c3cc4c(cc3F)c(=O)c(C(=O)O)cn4C3CC3)CC2)c1`, the GI50 [1] is reported as 2.42 µM, the TGI [1] is reported as > 100 µM and the GI50 [2] is reported as 2.64 µM. For the same compound, the TGI [2] was > 100 µM, the GI50 [3] was 0.278 µM and the TGI [3] was > 100 µM. For the same compound, the GI50 [4] was 3.91 µM, the TGI [4] was > 100 µM and the GI50 [5] was 1.89 µM. The TGI [5] was 7.48 µM, the GI50 [10] was 2.77 µM and the TGI [10] was > 100 µM. The GI50 [6] was 0.984 µM, the TGI [6] was > 100 µM and the GI50 [7] was 0.389 µM. For the same compound, the TGI [7] was > 100 µM, the GI50 [8] was 1.91 µM and the TGI [8] was > 100 µM.

With `CC(=O)C1C(=O)C(=O)N(c2ccc(Cl)cc2C)C1=O` (stereo not drawn) the TGI [2] was > 100 µM, the TGI [3] was > 100 µM and the TGI [4] was > 100 µM. The TGI [5] was > 100 µM, the TGI [6] was > 100 µM and the TGI [7] was > 100 µM. The TGI [8] was > 100 µM and the TGI [9] was > 100 µM.

For `NC(N)=NS(=O)(=O)c1ccc(NC(=O)c2ccc(Cl)c3c(Nc4ccc(S(=O)(=O)N=C(N)N)cc4)c4ccccc4nc23)cc1`, the TGI [1] was > 100 µM, the TGI [2] was > 100 µM and the TGI [3] was > 100 µM. For the same compound, the TGI [4] was > 100 µM, the TGI [10] was > 100 µM and the TGI [6] was > 100 µM. For the same compound, the TGI [7] was > 100 µM, the TGI [8] was > 100 µM and the TGI [9] was > 100 µM.

With `CN1NC(c2ccccc2)=C(C#N)C(=O)CC1c1ccccc1Cl` (stereo not drawn) the TGI [1] was > 100 µM, the TGI [2] was > 100 µM and the TGI [4] was > 100 µM. The TGI [5] was > 100 µM, the TGI [10] was > 100 µM and the TGI [6] was > 100 µM. The TGI [7] was > 100 µM and the TGI [8] was > 100 µM.

For `CN1C(=O)NC2(O)c3ccccc3C(=O)C12O` (stereo not drawn), the TGI [1] was > 100 µM, the TGI [2] was > 100 µM and the TGI [3] was > 100 µM. The TGI [4] was > 100 µM, the TGI [10] was > 100 µM and the TGI [6] was > 100 µM. The TGI [7] was > 100 µM, the TGI [8] was > 100 µM and the TGI [9] was > 100 µM.

Work on `COc1ccc(CNCCCN2C(=O)c3ccc4c5c(ccc(c35)C2=O)C(=O)N(CCCNCCCCNCCCN)C4=O)c(OC)c1OC` yielded a GI50 [1] of 4.49 µM, a TGI [1] of 44.9 µM and a GI50 [2] of 2.76 µM. It also gave a TGI [2] of 7.94 µM, a GI50 [3] of 0.761 µM and a TGI [3] of 12.7 µM. It also gave a GI50 [10] of 3.18 µM, a TGI [10] of 83.2 µM and a GI50 [6] of 1.42 µM. It also gave a TGI [6] of 11.4 µM, a GI50 [7] of 0.63 µM and a TGI [7] of 2.97 µM. It also gave a GI50 [8] of 0.334 µM, a TGI [8] of 1.38 µM and a GI50 [9] of 4.84 µM. For the same compound, the TGI [9] was > 100 µM.

Work on `CC(=O)OC1C(O)COC(Oc2c(C)c3c4c(c2O)[C@@H](C)CC[C@@H]4[C@@H](C)C[C@H]3C=C(C)C)C1O` (stereo partly drawn) yielded a GI50 [1] of 16.9 µM, a TGI [1] of 32.2 µM and a GI50 [2] of 15.2 µM. For the same compound, the TGI [2] was 31.7 µM, the GI50 [3] was 10.3 µM and the TGI [3] was 30.2 µM. For the same compound, the GI50 [4] was 23.2 µM, the TGI [4] was 47.9 µM and the GI50 [5] was 15.3 µM. For the same compound, the TGI [5] was 32.4 µM, the GI50 [10] was 19.6 µM and the TGI [10] was 39.2 µM. For the same compound, the GI50 [6] was 23.4 µM, the TGI [6] was 49.6 µM and the GI50 [7] was 18 µM. For the same compound, the TGI [7] was 35 µM, the GI50 [9] was 30 µM and the TGI [9] was > 100 µM.

`Nc1nc(N)c2ncn(Cc3c(Cl)cccc3Cl)c2n1` was tested, and the TGI [1] was > 100 µM, the TGI [2] was > 100 µM and the TGI [4] was > 100 µM. The TGI [5] was > 100 µM, the TGI [10] was > 100 µM and the TGI [6] was > 100 µM. For the same compound, the TGI [7] was > 100 µM, the TGI [8] was > 100 µM and the TGI [9] was > 100 µM.

`[O-]c1c(-c2ccccc2)[se]c(-c2ccccc2)[n+]1-c1ccccc1` was tested, and the TGI [1] was 34.1 µM, the TGI [2] was 31.2 µM and the TGI [3] was > 100 µM. It also gave a TGI [5] of 26.5 µM, a TGI [10] of 39.2 µM and a TGI [6] of 20.2 µM. For the same compound, the TGI [8] was 25.3 µM and the TGI [9] was 9.84 µM.

`COc1cc2c(C#N)n3c(c2cc1OC)C(=O)C(c1ccccc1)Oc1ccccc1-3` (stereo not drawn) was tested, and the GI50 [3] was 3.08 µM, the TGI [3] was > 100 µM and the GI50 [10] was 21.1 µM. For the same compound, the TGI [10] was > 100 µM, the GI50 [6] was 3.53 µM and the TGI [6] was > 100 µM. The GI50 [7] was 2.77 µM and the TGI [7] was > 100 µM.

Work on `COc1cc2c(c(OC)c1OC)C(=O)c1c-2n(CCCN)c(=O)c2cc([N+](=O)[O-])ccc12` yielded a GI50 [1] of 0.535 µM, a TGI [1] of 2.24 µM and a GI50 [3] of 2.86 µM. For the same compound, the TGI [3] was 7.98 µM, the GI50 [4] was 1.61 µM and the TGI [4] was 3.04 µM. It also gave a GI50 [5] of 1.53 µM, a TGI [5] of 3.24 µM and a GI50 [10] of 1.95 µM. It also gave a TGI [10] of 4 µM, a GI50 [6] of 1.5 µM and a TGI [6] of 5.15 µM. The GI50 [8] was 5.18 µM, the TGI [8] was 12.2 µM and the GI50 [9] was 1.89 µM. For the same compound, the TGI [9] was 3.57 µM.

For `NC(CCc1nc(-c2ccccc2)cs1)C(=O)O` (stereo not drawn), the TGI [1] was > 100 µM, the TGI [2] was > 100 µM and the TGI [3] was > 100 µM. For the same compound, the TGI [5] was > 100 µM, the TGI [10] was > 100 µM and the TGI [6] was > 100 µM. The TGI [7] was > 100 µM, the TGI [8] was > 100 µM and the TGI [9] was > 100 µM.

In the case of `CCN(CC)CCNc1ccc(CO)c2sc3ccccc3c(=O)c12`, the GI50 [1] is reported as 3.03 µM, the TGI [1] is reported as 26.4 µM [middle of 4 runs] and the GI50 [4] is reported as 5.05 µM. The TGI [4] was 25.1 µM [middle of 4 runs], the GI50 [6] was 3.54 µM and 13.3 µM and 14.1 µM and the TGI [6] was 29.1 µM [middle of 4 runs]. The GI50 [7] was 3.97 µM and 12.6 µM, the TGI [7] was 23.7 µM [middle of 4 runs] and the GI50 [8] was 1.7 µM and 3.79 µM. The GI50 [9] was 2.09 µM and 8.51 µM and the TGI [9] was 20.9 µM [middle of 4 runs].

`COC(=O)/C1=C/C2CC(/C=C(/c3ccccc3)C(=O)O1)C2` was tested, and the TGI [2] was 53.1 µM, the TGI [3] was 96.1 µM and the TGI [5] was 47 µM. For the same compound, the TGI [10] was 72.9 µM, the TGI [6] was > 100 µM and the TGI [7] was 49.3 µM. For the same compound, the TGI [8] was 23.2 µM and the TGI [9] was > 100 µM.

With `O=C(CN1C(=O)c2ccccc2C1=O)OC1C=CCCC1` (stereo not drawn) the TGI [1] was > 100 µM, the TGI [2] was > 100 µM and the TGI [3] was > 100 µM. For the same compound, the TGI [5] was > 100 µM, the TGI [10] was > 100 µM and the TGI [6] was > 100 µM. For the same compound, the TGI [7] was > 100 µM, the TGI [8] was > 100 µM and the TGI [9] was > 100 µM.

For `c1ccc2c(c1)[Se]c1ccccc1[Se]2`, the TGI [1] was > 100 µM, the TGI [3] was > 100 µM and the TGI [4] was > 100 µM. The TGI [5] was > 100 µM, the TGI [10] was > 100 µM and the TGI [6] was > 100 µM. For the same compound, the TGI [7] was > 100 µM, the TGI [8] was > 100 µM and the TGI [9] was > 100 µM.

With `CCCC(=O)C(CC)/C(CCC(=O)N(Cc1ccccc1)Cc1ccccc1)=N/NC(=O)C[N+](C)(C)C` (stereo not drawn) the TGI [1] was > 100 µM, the TGI [3] was > 100 µM and the TGI [4] was > 100 µM. The TGI [5] was > 100 µM, the TGI [10] was > 100 µM and the TGI [6] was > 100 µM. The TGI [7] was > 100 µM, the TGI [8] was > 100 µM and the TGI [9] was > 100 µM.

`O=C1c2ccccc2C(=O)N1C/C=N/NS(=O)(=O)c1ccc(Cl)cc1` was tested, and the TGI [1] was > 100 µM, the TGI [2] was > 100 µM and the TGI [3] was > 100 µM. For the same compound, the TGI [5] was > 100 µM, the TGI [6] was > 100 µM and the TGI [7] was > 100 µM. For the same compound, the TGI [8] was > 100 µM and the TGI [9] was > 100 µM.
